Assay results taken from ChEMBL document CHEMBL4145523, “New selective cyclooxygenase-2 inhibitors from cyclocoumarol: Synthesis, characterization, biological evaluation and molecular modeling” (Eur J Med Chem, 2018).
Active and inactive are the calls of the source. No cut-off for these calls is given here.

What was measured:
RAW264.7 [1] = experiment: Down regulation of COX-1 expression in mouse RAW264.7 cells at 10 uM after 24 hrs by Western blot method; format: ADME, cell-based; settings: raw264.7, 24 h
RAW264.7 [2] = experiment: Antiinflammatory activity against mouse RAW264.7 cells assessed as inhibition of LPS induced cox-2 expression at 5 to 20 uM preincubated for 2 hrs followed by LPS challenge measured after 24 hrs by Western blot method; format: functional, cell-based
[3] = target: T1, Prostaglandin G/H synthase 1 (Mus musculus, UniProt P22437); experiment: Inhibition of COX-1 in mouse RAW264.7 cells assessed as reduction in PGE2 production at 10 uM after 24 hrs by enzyme immunoassay; format: cell-based; settings: raw264.7, 24 h
T1 sequence (P22437 whole entry): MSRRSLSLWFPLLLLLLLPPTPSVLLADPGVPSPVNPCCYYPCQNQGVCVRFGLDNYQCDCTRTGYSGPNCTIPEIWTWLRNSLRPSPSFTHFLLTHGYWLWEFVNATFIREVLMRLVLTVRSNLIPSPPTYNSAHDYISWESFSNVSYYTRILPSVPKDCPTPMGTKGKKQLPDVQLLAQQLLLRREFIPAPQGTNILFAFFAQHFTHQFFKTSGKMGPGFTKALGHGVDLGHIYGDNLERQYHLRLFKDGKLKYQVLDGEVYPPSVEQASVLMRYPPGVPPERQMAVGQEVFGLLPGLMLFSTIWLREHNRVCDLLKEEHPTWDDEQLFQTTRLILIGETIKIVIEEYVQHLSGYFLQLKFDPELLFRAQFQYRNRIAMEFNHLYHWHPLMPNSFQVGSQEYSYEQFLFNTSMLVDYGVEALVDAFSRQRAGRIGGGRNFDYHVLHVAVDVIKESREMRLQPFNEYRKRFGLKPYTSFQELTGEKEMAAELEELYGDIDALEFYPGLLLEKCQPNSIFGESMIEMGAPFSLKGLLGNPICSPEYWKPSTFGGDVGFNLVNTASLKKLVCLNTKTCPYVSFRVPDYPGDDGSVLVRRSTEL

[4] = target: T2, Prostaglandin G/H synthase 2 (Mus musculus) (UniProt Q05769); experiment: Inhibition of COX-2 in mouse RAW264.7 cells assessed as reduction in PGE2 production preincubated for 2 hrs followed by LPS stimulation measured after 24 hrs by enzyme immunoassay; format: cell-based
T2 sequence (whole entry): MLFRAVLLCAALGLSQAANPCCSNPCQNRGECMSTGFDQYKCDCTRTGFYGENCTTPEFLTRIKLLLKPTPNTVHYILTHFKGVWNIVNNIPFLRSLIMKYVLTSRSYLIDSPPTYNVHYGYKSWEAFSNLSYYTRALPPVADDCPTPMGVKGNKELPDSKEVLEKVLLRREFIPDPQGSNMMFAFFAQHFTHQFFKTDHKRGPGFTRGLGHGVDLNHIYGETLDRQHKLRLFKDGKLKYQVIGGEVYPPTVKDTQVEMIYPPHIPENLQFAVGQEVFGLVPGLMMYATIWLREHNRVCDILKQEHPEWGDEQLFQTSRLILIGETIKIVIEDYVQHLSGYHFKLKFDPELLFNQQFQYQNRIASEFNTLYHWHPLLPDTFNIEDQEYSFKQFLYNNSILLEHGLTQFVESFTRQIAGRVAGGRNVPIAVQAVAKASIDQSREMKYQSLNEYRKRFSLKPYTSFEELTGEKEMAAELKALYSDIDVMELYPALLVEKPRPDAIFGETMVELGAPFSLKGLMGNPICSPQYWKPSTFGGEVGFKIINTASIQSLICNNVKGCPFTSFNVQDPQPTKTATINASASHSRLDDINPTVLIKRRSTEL

COc1ccc(C2CC(C)(OC)Oc3c2c(=O)oc2ccccc32)cc1 (single isomer, unassigned)
Activity (RAW264.7 [1]): Non-Toxic
inhibition (RAW264.7 [2]): inactive
inhibition (INH) [3]: Not Active
inhibition [4]: Dose-dependent effect
